Measured values reported in article PMC11359831, “Stepwise Structural Simplification of the Dihydroxyanthraquinone Moiety of a Multitarget Rhein-Based Anti-Alzheimer Lead to Improve Drug Metabolism and Pharmacokinetic Properties” (Pharmaceutics, 2024).
Values joined by “and” are separate entries in the source; they are usually repeats but may differ in a detail not shown here. Equal entries are not always repeated.

What was measured:
[1] = target: T1, human recombinant BACE-1 (hBACE-1) (Homo sapiens, UniProt P56817); test: In vitro hBACE-1 inhibition (fluorometric method); type: biochemical; conditions: for inhibition at 15 µM: read-out: hBACE-1 % inh. @15 µM
T1 construct: purchased Invitrogen, Carlsbad, CA, USA
Method: The inhibition of human recombinant BACE-1 (hBACE-1) (Invitrogen, Carlsbad, CA, USA) by hybrids 4–7 was evaluated by a fluorometric method. The substrate (Panvera peptide, 10 μL, 250 nM final concentration) was added to a solution (10 μL) of hybrids 4–7 or buffer in control wells (20 mM sodium acetate at pH 4.5, with 0.1% w/v CHAPS). After the addition of the enzyme (10 μL, 12.91 mU), the assay solution was incubated for 1 h at 37 °C. Thereafter, STOP solution (10 μL, 2.5 M sodium acetate) was added and the fluorescence was read at […]. The DMSO concentration in the assay solution was kept <5% (v/v) to ensure no significant loss of BACE-1 activity. The background signal, determined in control wells with all the components of the assay but BACE-1, was subtracted. The fluorescence intensities in the presence of increasing concentrations or in the absence of hybrids 4–7 were compared to calculate the percent of enzyme inhibition produced by the compounds, by applying the following expression: 100 − (IFi/IFo × 100), in which IFi and IFo are the fluorescence intensities in the presence and in the absence of the compounds, respectively. Additionally, the IC50 values were calculated (GraphPad Prism 4.03 software, GraphPad Software Inc., San Diego, CA, USA) and are given as the mean ± SEM of at least two experiments, each performed in triplicate.

tau aggregation = target: T2, tau aggregation (Homo sapiens, UniProt P10636); test: Tau aggregation inhibition in genetically modified E. coli cells (Th-S fluorescence); type: cell-based, Escherichia coli; conditions: live E. coli cells overexpressing tau; for inhibition at 10 µM: read-out: Tau Aggregation % inh. @10 µM
T2 construct: expressed in transfected cells; host or cells: E. coli BL21 (DE3) bearing pTARA and pRKT42
Method: For tau overexpression, M9 minimal medium (10 mL) containing glucose (0.5%), ampicillin (50 μg/mL), chloramphenicol (12.5 μg/mL), and E. coli BL21 (DE3) cells bearing the pTARA plasmid, which carries the RNA polymerase gene of the T7 phage (T7RP) under control of the PBAD promoter, and subsequent transformation with the pRKT42 vector were used instead. In this case, the overnight culture for a 1:500 dilution was added to fresh M9 minimal medium containing glucose (0.5%), chloramphenicol (12.5 μg/mL), ampicillin (50 μg/mL), and Th-S (250 µM).
For Aβ42 overexpression, the corresponding E. coli cell cultures were kept growing overnight (37 °C; 250 rpm) until they reached an OD600 = 0.6. These cultures (980 μL) were added to a mixture of 10 μL of a solution of the new compounds in DMSO and 10 μL of 100 mM isopropyl 1-thio-β-D-galactopyranoside (IPTG), to reach a final compound concentration of 10 μM. The same procedure was used for tau overexpression but employing 10 μL of 25% arabinose instead of IPTG. The resulting E. coli cultures were kept growing overnight (37 °C; 1400 rpm) using an Eppendorf Thermomixer (Hamburg, Germany). To prepare a negative control for the assay, showing the highest amount of the amyloidogenic protein, the same quantity of DMSO, without the compounds to be tested, was added to the sample. With the double purpose of obtaining positive controls devoid of the amyloidogenic proteins and assessing the potential intrinsic toxicity of the new compounds, we also prepared samples that had not been treated with either IPTG or arabinose (non-induced samples).
To assess the inhibitory activity of compounds 4–7 on Aβ42 and tau aggregation within E. coli cells, a fluorescence assay was employed, using Th-S ([…] stock solution, T1892, Sigma, St. Louis, MO, USA) in double-distilled water (Milli-Q system, Millipore, Bay City, MI, USA) and an Aminco Bowman Series 2 luminescence spectrophotometer (Aminco-Bowman AB2, SLM Aminco, Rochester, NY, USA), working at 25 °C in the wavelength range of 460–600 nm, with λex = 445 nm, slit widths of 4 nm, and λem = 485 nm. The results are given as the average of nine independent experiments, each performed in triplicate.

physchem = conditions: PBS (99%) with DMSO (1%), 37 °C, aqueous buffer, kinetic from dmso stock, kinetic solubility
Method: The resulting solutions were incubated at 37 °C. After 2 h incubation, the samples were read using a BMG LABTECH NEPHELOstar Plus laser nephelometer (Ortenberg, Germany).

[2] = Plasma stability, mouse plasma; type: in vitro ADME; conditions: 37 °C; for remaining at 1 h, 5 μM: read-out: Plasma Stability % Remaining Compound, mouse, 1 h; for remaining at 6 h, 5 μM: read-out: Plasma Stability % Remaining Compound, mouse, 6 h
Method: The plasma stability of the new compounds was tested using in human, mouse, and rat plasma (Seralab). One hundred μL of 5 μM solutions of the new compounds in plasma were plated and incubated at 37 °C for 0, 60, 120, and 360 min, and then treated with 300 μL of acetonitrile and centrifuged (4000× g; 60 min; 4 °C). Sample quantification was performed by UPLC/MS/MS analysis of the resulting supernatant using a UPLC QSM Waters Acquity apparatus, equipped with a Waters ACQUITY BEH C18 1.7 μm 2.1 × 50 mm column, eluting with 0.1% formic acid in water or in acetonitrile, with a flow of 0.6 mL/min. The gradient indicated in Table 1 was used in this assay.
Compound concentration was calculated from the MS peak areas and expressed as the percentage of remaining compound at the different tested times.

[3] = Fish embryo acute toxicity (FET) test in zebrafish embryos; type: in vivo; conditions: in vivo, other: embryos exposed by immersion in the test solution, pH 7.4, 72 h of exposure, read-out: LC50 (CI95)
Method: Test solutions were freshly prepared for each experiment and were renewed every 24 h. The maximum tested compound concentration was 100 µM and four additional concentrations were also prepared by applying a 1:2 dilution factor. A 1% DMSO solution was used as a vehicle control.
Six-well plates were incubated at 26 ± 1 °C under a 14:10 light:dark cycle for 72 h. To assess the potential lethality of the new compounds, we followed, every 24 h, the four parameters that are outlined in the OECD Guideline No. 236: embryo coagulation, lack of somite formation, non-detachment of the tail, and absence of a heartbeat (from 48 h onward). The percentage of lethality at each concentration that was tested for the new compounds was recorded and expressed as mean ± SEM from three or more independent experiments. […] LOAEC values were determined through an ANOVA test with Bonferroni’s post-hoc test for multiple comparisons (significance threshold: p < 0.05).

human serum BChE (hBChE) = target: T3, human serum BChE (hBChE) (Homo sapiens, UniProt P06276); test: biochemical; conditions: for IC50: human serum BChE, Ellman method, mean ± standard error; for increase in hBChE inhibitory activity relative to hybrid 3: relative to dihydroxyanthraquinone hybrid 3
T3 construct: human serum BChE (hBChE); purchased Sigma (Milan, Italy); host or cells: human serum
Method: The stock and assay solutions were prepared as follows:
Stock hBChE solution: solution of the lyophilized powder in 0.1% aq. gelatin.
Stock solutions of the new compounds: 1 mM solutions in methanol, with further dilutions in this solvent to the desired concentrations.

[4] = Solubility class, classification after ref 70
[5] = Solubility, 2 h, DMSO (1%)/PBS (99%)
[6] = Solubility, 2 h, PBS with 1% DMSO, nephelometry
[7] = compound at 15 µM (parenthesized values)

T1 sequence (P56817 46-501): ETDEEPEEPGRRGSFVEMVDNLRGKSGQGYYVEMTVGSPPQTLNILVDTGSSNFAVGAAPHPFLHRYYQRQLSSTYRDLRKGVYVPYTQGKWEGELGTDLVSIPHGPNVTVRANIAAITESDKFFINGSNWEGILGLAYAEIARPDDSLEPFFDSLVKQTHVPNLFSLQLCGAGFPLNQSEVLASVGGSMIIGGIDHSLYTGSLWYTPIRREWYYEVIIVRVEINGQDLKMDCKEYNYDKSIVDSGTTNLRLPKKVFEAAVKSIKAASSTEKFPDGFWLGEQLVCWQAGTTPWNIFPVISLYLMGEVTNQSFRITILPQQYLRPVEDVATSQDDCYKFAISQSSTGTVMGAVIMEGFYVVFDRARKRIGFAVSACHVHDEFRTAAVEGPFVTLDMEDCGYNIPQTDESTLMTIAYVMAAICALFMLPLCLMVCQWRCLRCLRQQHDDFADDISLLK
T3 sequence (P06276 29-602): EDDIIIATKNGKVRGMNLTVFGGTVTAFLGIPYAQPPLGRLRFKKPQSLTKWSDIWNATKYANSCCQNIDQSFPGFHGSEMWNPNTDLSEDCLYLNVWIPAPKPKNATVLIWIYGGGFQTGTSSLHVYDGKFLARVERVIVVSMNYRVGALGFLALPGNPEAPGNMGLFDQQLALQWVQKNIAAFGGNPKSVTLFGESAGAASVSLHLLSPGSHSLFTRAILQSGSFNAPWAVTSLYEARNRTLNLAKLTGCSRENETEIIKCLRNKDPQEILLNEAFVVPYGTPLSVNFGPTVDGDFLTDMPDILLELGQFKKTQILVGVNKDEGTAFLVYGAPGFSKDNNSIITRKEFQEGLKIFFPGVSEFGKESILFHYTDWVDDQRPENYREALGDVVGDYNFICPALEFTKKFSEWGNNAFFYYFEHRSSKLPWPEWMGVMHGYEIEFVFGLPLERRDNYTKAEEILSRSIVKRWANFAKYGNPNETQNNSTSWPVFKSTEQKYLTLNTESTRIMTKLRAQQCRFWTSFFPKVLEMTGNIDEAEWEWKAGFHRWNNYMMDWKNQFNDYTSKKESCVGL
T2 sequence (P10636 other isoform, or with tags, fused parts or gaps): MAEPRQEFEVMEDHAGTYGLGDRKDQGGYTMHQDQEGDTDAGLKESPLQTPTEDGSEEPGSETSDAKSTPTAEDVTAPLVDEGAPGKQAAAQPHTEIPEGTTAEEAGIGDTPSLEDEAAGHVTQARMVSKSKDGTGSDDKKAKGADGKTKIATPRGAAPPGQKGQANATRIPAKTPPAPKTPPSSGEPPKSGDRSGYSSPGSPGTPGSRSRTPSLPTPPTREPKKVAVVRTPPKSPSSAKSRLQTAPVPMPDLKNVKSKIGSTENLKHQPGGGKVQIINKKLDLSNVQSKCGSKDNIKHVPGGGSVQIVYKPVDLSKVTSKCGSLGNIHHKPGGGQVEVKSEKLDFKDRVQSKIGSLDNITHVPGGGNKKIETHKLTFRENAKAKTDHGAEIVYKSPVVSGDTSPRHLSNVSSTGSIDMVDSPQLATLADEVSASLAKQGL

| SMILES | IC50 [1] | inhibition at 10 µM (tau aggregation) | solubility at 2 h (physchem; [4]) | solubility at 2 h (physchem; [5]) | solubility at 2 h (physchem; [6]) | remaining at 1 h, 5 μM [2] | remaining at 6 h, 5 μM [2] | LC50 at 72 h [3] | IC50 (human serum BChE (hBChE)) | inhibition at 15 µM [1, 7] | increase in hBChE inhibitory activity relative to hybrid 3 (human serum BChE (hBChE)) | hBACE-1 % inh. @15 µM ([1]; compound at 15 µM (parenthesized values), 15 µM) | Tau Aggregation % inh. @10 µM (tau aggregation) |
| --- | --- | --- | --- | --- | --- | --- | --- | --- | --- | --- | --- | --- | --- |
| CC1=CC2Cc3nc4cc(Cl)ccc4c(NCCCCCCCCCNC(=O)c4cc(O)c5c(c4)C(=O)c4cccc(O)c4C5=O)c3C(C1)C2 (centres unmarked) [Compound 3] | 1500 ± 380 nM | 58.2 ± 1.8% | < 10 µg/mL | 6.3 µg/mL | 8.6 µM | 97.2% | 92.9% | > 100000 nM | – | – | – | – | – |
| CC1=CC2Cc3nc4cc(Cl)ccc4c(NCCCCCCCCCNC(=O)c4ccc5c(c4)C(=O)c4ccccc4C5=O)c3C(C1)C2 (centres unmarked) [Compound 4, N-{9-[(3-Chloro-6,7,10,11-tetrahydro-9-methyl-7,11-methanocycloocta[b]quinolin-12-yl)amino]nonyl}anthraquinone-2-carboxamide] | 2890 ± 500 nM | 63 ± 3.5% | < 10 µg/mL | 5.9 µg/mL | 8.4 µM | 96% | 90.1% | > 100000 nM | 1250 ± 130 nM | – | – | – | – |
| CC1=CC2Cc3nc4cc(Cl)ccc4c(NCCCCCCCCCNC(=O)c4ccc5c(c4)C(=O)c4ccccc4-5)c3C(C1)C2 (centres unmarked) [Compound 5, N-{9-[(3-Chloro-6,7,10,11-tetrahydro-9-methyl-7,11-methanocycloocta[b]quinolin-12-yl)amino]nonyl}-9-fluorenone-2-carboxamide] | 5630 ± 10 nM | 68.9 ± 2.1% | < 10 µg/mL | 5.4 µg/mL | 8.1 µM | 95.7% | 90.4% | > 100000 nM | 883 ± 55 nM | – | – | – | – |
| CC1=CC2Cc3nc4cc(Cl)ccc4c(NCCCCCCCCCNC(=O)c4cccc(C(=O)c5ccccc5)c4)c3C(C1)C2 (centres unmarked) [Compound 6, 3-Benzoyl-N-{9-[(3-chloro-6,7,10,11-tetrahydro-9-methyl-7,11-methanocycloocta[b]quinolin-12-yl)amino]nonyl}benzamide] | ≤ 15000 nM | 62.5 ± 2.1% | < 10 µg/mL | 8.4 µg/mL | 12.5 µM | 98.3% | 76.9% | 40100 nM | 16.5 ± 1.9 nM | 61.5% | 40–50 fold | – | – |
| CC(=O)c1cccc(C(=O)NCCCCCCCCCNc2c3c(nc4cc(Cl)ccc24)CC2C=C(C)CC3C2)c1 (centres unmarked) [Compound 7, 3-Acetyl-N-{9-[(3-chloro-6,7,10,11-tetrahydro-9-methyl-7,11-methanocycloocta[b]quinolin-12-yl)amino]nonyl}benzamide] | ≤ 15000 nM | 68% | 10 to 100 µg/mL | 11 µg/mL | 18 µM | 97.5% | 96% | > 100000 nM | 13 nM and 12.7 nM | 48% | 40–50 fold | (48.1 ± 0.3) % | 68.3 ± 3.1% |
